Test results: ChEMBL document CHEMBL1201862, “PubChem BioAssay data set” (2004)
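Briefly, cells in 96-well plates were exposed to five compound concentrations for 48 h, and endpoints were estimated by linear interpolation. GI50 = concentration required for 50% inhibition of growth.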 Active and inactive are the calls of the source. Rule as the data show it: active = GI50 up to about 1.1 µM and inactive = higher.

What was measured:
Experiment in all cases: NCI-60 cell line screen, 48 h
DMS-114 = system: DMS-114
M14 = system: M14
LXFL 529 = system: LXFL 529
A549 = system: A549
DMS-273 = system: DMS-273
HCT-116 = system: HCT-116
OVCAR-4 = system: OVCAR-4
KM12 = system: KM12
SNB-75 = system: SNB-75
SF-295 = system: SF-295
SK-MEL-28 = system: SK-MEL-28
TK-10 = system: TK-10
MOLT-4 = system: MOLT-4
RXF 393 = system: RXF 393
HT-29 = system: HT-29
COLO 205 = system: COLO 205
CCRF-CEM = system: CCRF-CEM
SW-620 = system: SW-620
SK-MEL-5 = system: SK-MEL-5
IGROV-1 = system: IGROV-1
HOP-18 = system: HOP-18
UACC-62 = system: UACC-62
SN12C = system: SN12C
OVCAR-8 = system: OVCAR-8
SK-OV-3 = system: SK-OV-3
DLD-1 = system: DLD-1
SNB-19 = system: SNB-19
ACHN = system: ACHN
HOP-62 = system: HOP-62
NCI-H226 = system: NCI-H226
HCT-15 = system: HCT-15
HL-60 = system: HL-60
SF-268 = system: SF-268
RPMI-8226 = system: RPMI-8226
NCI-H522 = system: NCI-H522
HCC 2998 = system: HCC 2998
XF498 = system: XF498
NCI-H23 = system: NCI-H23
786-0 = system: 786-0
RXF 631 = system: RXF 631
K562 = system: K562
SNB-78 = system: SNB-78
OVCAR-5 = system: OVCAR-5
EKVX = system: EKVX
A498 = system: A498
SK-MEL-2 = system: SK-MEL-2
LOX IMVI = system: LOX IMVI
Malme-3M = system: Malme-3M
NCI-H460 = system: NCI-H460
UACC-257 = system: UACC-257
SR = system: SR
SF-539 = system: SF-539
U-251 = system: U-251
M19-MEL = system: M19-MEL
UO-31 = system: UO-31
OVCAR-3 = system: OVCAR-3
KM-20L2 = system: KM-20L2

CC(=O)OCCOCNC(=S)N/N=C/c1cc(Br)cs1
GI50 (DMS-114): > 100 µM (inactive)
GI50 (M14): > 100 µM (inactive)
GI50 (LXFL 529): > 100 µM (inactive)
GI50 (A549): > 100 µM (inactive)
GI50 (DMS-273): > 100 µM (inactive)
GI50 (HCT-116): > 100 µM (inactive)
GI50 (OVCAR-4): > 100 µM (inactive)
GI50 (KM12): > 100 µM (inactive)
GI50 (SNB-75): > 100 µM (inactive)
GI50 (SF-295): > 100 µM (inactive)
GI50 (SK-MEL-28): > 100 µM (inactive)
GI50 (TK-10): > 100 µM (inactive)
GI50 (MOLT-4): > 100 µM (inactive)
GI50 (RXF 393): > 100 µM (inactive)
GI50 (HT-29): > 100 µM (inactive)
GI50 (COLO 205): > 100 µM (inactive)
GI50 (CCRF-CEM): > 100 µM (inactive)
GI50 (SW-620): > 100 µM (inactive)
GI50 (SK-MEL-5): > 100 µM (inactive)
GI50 (IGROV-1): > 100 µM (inactive)
GI50 (HOP-18): > 100 µM (inactive)
GI50 (UACC-62): > 100 µM (inactive)
GI50 (SN12C): > 100 µM (inactive)
GI50 (OVCAR-8): > 100 µM (inactive)
GI50 (SK-OV-3): > 100 µM (inactive)
GI50 (DLD-1): > 100 µM (inactive)
GI50 (SNB-19): > 100 µM (inactive)
GI50 (ACHN): > 100 µM (inactive)
GI50 (HOP-62): > 100 µM (inactive)
GI50 (NCI-H226): > 100 µM (inactive)
GI50 (HCT-15): > 100 µM
GI50 (HL-60): > 100 µM (inactive)
GI50 (SF-268): > 100 µM (inactive)
GI50 (RPMI-8226): > 100 µM (inactive)
GI50 (NCI-H522): > 100 µM (inactive)
GI50 (HCC 2998): > 100 µM (inactive)
GI50 (XF498): > 100 µM (inactive)
GI50 (NCI-H23): > 100 µM (inactive)
GI50 (786-0): > 100 µM (inactive)
GI50 (RXF 631): > 100 µM (inactive)
GI50 (K562): > 100 µM (inactive)
GI50 (SNB-78): > 100 µM (inactive)
GI50 (OVCAR-5): > 100 µM (inactive)
GI50 (EKVX): > 100 µM (inactive)
GI50 (A498): > 100 µM (inactive)
GI50 (SK-MEL-2): > 100 µM (inactive)
GI50 (LOX IMVI): > 100 µM (inactive)
GI50 (Malme-3M): > 100 µM (inactive)
GI50 (NCI-H460): > 100 µM (inactive)
GI50 (UACC-257): > 100 µM (inactive)
GI50 (SR): > 100 µM (inactive)
GI50 (SF-539): > 100 µM (inactive)
GI50 (U-251): > 100 µM (inactive)
GI50 (M19-MEL): > 100 µM (inactive)
GI50 (UO-31): > 100 µM (inactive)
GI50 (OVCAR-3): > 100 µM (inactive)
GI50 (KM-20L2): > 100 µM (inactive)
